# Like-named read-outs stand apart in the source and are kept apart here. Positions of bridges follow the written chain, without caps; N, C: chain ends. Residues, ends and D or L forms follow the SMILES beside them. No end group written: not given here.
# Columns and labels:
# [1] = test system: antiserum directed against peptide III; assay: Competitive radioimmunoassay with 125I-peptide III; type: binding, rabbit; conditions: for Relative Inhibitory Activity: half-maximal inhibitory concentration relative to peptide III, standard RIA; for effectiveness as inhibitor of precipitation of 125I-peptide III: relative to peptide III
# Method: Reactants were mixed in a final volume of 50 microliters of a solution containing: 20 mM sodium phosphate, at pH 7.4; 200 mM NaCl; 40 mM dithiothreitol; 0.1% (w:v) BSA; 0.1% (w:v) NaN3; ^125 I-peptide III; (10^4 cpm); antiserum at a final dilution of 1/15,000; and other additions, as specified. The reaction was initiated by the addition of antiserum and continued at 23° C. for 90 minutes. An equal volume of 10% formalin-fixed Staphalococcus A (Pansorbin, Calbiochem) was then added and incubation was continued for an additional 30 minutes at 23° C. The immunoadsorbant was removed by sedimentation through a cushion of 10% (w:v) sucrose and the amount of bound ^125 I-peptide III was determined using a gamma counter.
# [2] = test system: BSC-1 cells infected with vaccinia virus; type: cell-based, Cercopithecus monkey; conditions: AraC from after the 1 hr adsorption period; 13 and 24 hr post infection
# [3] = target: T1, EGF receptors on A431 cells (Homo sapiens, UniProt P00533); assay: Binding of 125I-labeled rat TGF to A431 cells
# T1 construct: Human epidermoid carcinoma A431 cells have in excess of 10^6 EGF receptors per cell; endogenous in cells; host or cells: A431 human epidermoid carcinoma cells
# Method: was synthesized using the solid-phase technique of Ohgak et al. (1983) Journal of Immunol. Meth. 57, pp. 171-184. This oligopeptide was then coupled to keyhole limpet hemocyanin in accordance with the procedure of Baron et al. (1982) Cell 28, pp. 395-404, and used to immunize rabbits (Baron et al. (1982) Cell 28, pp. 395-404) and sheep (Lerner (1982) Nature 299, pp. 592-596). Antisera were assayed against peptide by a peroxidase-linked immunoassay (Kirkegaard and Perry Laboratories, Gaithersberg, Md.) and against homogeneous rat TGF (purified according to Example II above), by immunoprecipitation (Bister et al. (1980) J. Virol. 36, pp. 617-621) and Western blotting techniques (Burnett (1981) Analyt. Biochem. 112, pp. 195-203). Binding of ^125 I-labeled rat TGF and mouse EGF (Bethesda Research Labs, Bethesda, Md.) to A431 cells grown in 96-well microtiter plates was as described in Pross et al. (1977) Proc. Natl. Acad. Sci. USA 74, pp. 3918-3921.
# Human epidermoid carcinoma A431 cells have in excess of 10^6 EGF receptors per cell (Fabricant et al. (1977) Proc. Natl. Acad. Sci. USA 74, pp. 565-569). TGF competes with EGF for binding to these receptors. Binding of ^125 I-labeled rat TGF to these cells was blocked by an excess of unlabeled EGF and by antiserum to peptide. […]
# [4] = test system: anti-KLH-peptide 1 IgG; assay: Solid phase RIA, anti-KLH-peptide 1 IgG on BSA-peptide 1 conjugate; type: binding, rabbit
# Method: (1979) J. Immunol. Methods 28, pp. 201-206). Carrier-peptide complexes were purified by gel filtration. […] Rabbits were boosted s.c. every two weeks with the immunogen in incomplete Freund's adjuvant. The IgG fraction of the antiserum after 5 boosts was used for immunoassays and radiolabeled using Na^125 I (NEN) and Enzymobeads (Bio-Rad) to 4×10^5 cpm/μg protein. […] Plates were incubated for 4 hours at 37° C. with [^125 I]anti-KLH-peptide 1 IgG (50,000 cpm/well) in the presence or absence of inhibitors, washed and individual wells were counted.
# [5] = target: T2, EGF receptors on A-431 human epidermoid carcinoma cells (Homo sapiens, UniProt P00533); assay: [125I]EGF radioreceptor assay on A-431 cells; type: binding
# T2 construct: Human epidermoid carcinoma A431 cells have in excess of 10^6 EGF receptors per cell; endogenous in cells; host or cells: A431 human epidermoid carcinoma cells
# Method: A-431 human epidermoid carcinoma cells or human foreskin fibroblasts (HFF), established from primary cultures, were grown to confluence in 24-well cluster dishes (Costar) in Dulbecco's minimal essential medium (DMEM, Gibco) containing 10% fetal calf serum (FCS, Hyclone). EGF was radio-iodinated as above to between 4×10^4 and 8×10^4 cpm/ng protein. Cells were incubated at 4° C. for 60 minutes with 1 nM [^125 I]EGF in the presence of inhibitor peptides in DMEM (pH 7.4; 20 mM Hepes) containing 0.1% BSA. Cells were washed 3× with cold buffer, lysed with 0.1N NaOH, and cell-associated radioactivity was measured (γ-counter). Nonspecific binding assessed in the presence of a 100x excess of cold EGF was less than 5% and 10% of the specific binding for A-431 and HFF cells, respectively.
# [6] = test system: quiescent HFF; assay: Cell proliferation assay, [3H]methyl-thymidine incorporation; type: cell-based, human
# Method: HFF cells were grown to confluence in 48-well cluster dishes in DMEM-10% FCS and brought to quiescence by starvation for 2 days in DMEM-0.5% FCS. Mitogens and peptides were incubated with cells at 37° C. for 18 hours prior to a 4 hour pulse with 1 μCi [^3 H]methyl-thymidine (NEN) and trichloroacetic acid precipitable radioactivity was determined.
compound,measurement,setting,value
VVSHFNKCPDSHT [Peptide I],Relative Inhibitory Activity,[1],> 1500
same,effectiveness as inhibitor of precipitation of 125I-peptide III,[1],ineffective
CHSGYVGVRC (cysteine pairing not given here) [Peptide II],Relative Inhibitory Activity,[1],> 1500
"Nc1ccn([C@@H]2O[C@H](CO)[C@@H](O)[C@@H]2O)c(=O)n1 [AraC, cytosine arabinoside]",VGF production relative to infected control cultures,[2],enhanced more than two-fold
EGF: mouse submaxillary gland epidermal growth factor [reference compound],blocking of 125I-labeled rat TGF binding to A431 cells,[3],blocked
same,inhibition of reaction of anti-KLH-peptide 1 antibodies with BSA-TGF peptide,[4],did not cause significant inhibition
same,highest concentration without competition in RIA,[1],greater than 1 μM
same,Relative Inhibitory Activity,[1],> 1500
"Ac-Cys-His-Ser-Gly-Tyr-Val-Gly-Ala-Arg-Cys-OMe (Ac-CHSGYVGARC-OMe; disulfide 1-10 (inferred)) [Peptide 3, methyl ester of the corresponding loop of hTGF]",binding potency relative to EGF or TGF-α,[5],~0.2%
CHSGYVGVRCEHADLLA (cysteine pairing not given here) [Peptide III],Relative Inhibitory Activity,[1],1
same,IC50,[1]; read-out: concentration producing half-maximal inhibition of precipitation of 125I-peptide III,0.0007 µM
VGVRCEHADLLA [Peptide IV],Relative Inhibitory Activity,[1],3.5
same,effectiveness as inhibitor of precipitation of 125I-peptide III,[1],only slightly less effective
CC(=O)N[C@H]1CSSC[C@@H](C(N)=O)NC(=O)[C@H](CCCNC(=N)N)NC(=O)[C@H](C(C)C)NC(=O)CNC(=O)[C@H](C(C)C)NC(=O)[C@H](Cc2ccc(O)cc2)NC(=O)CNC(=O)[C@H](CO)NC(=O)[C@H](Cc2c[nH]cn2)NC1=O [Peptide 2] (Ac-CHSGYVGVRC-NH2; disulfide 1-10),binding potency relative to EGF or TGF-α,[5],approximately 0.02%
CC(C)[C@@H]1NC(=O)CNC(=O)[C@H](C(C)C)NC(=O)[C@H](Cc2ccc(O)cc2)NC(=O)CNC(=O)[C@H](CO)NC(=O)[C@H](Cc2c[nH]cn2)NC(=O)[C@@H](N)CSSC[C@@H](C(=O)O)NC(=O)[C@H](CCCNC(=N)N)NC1=O [Peptide 1] (H-CHSGYVGVRC-OH; disulfide 1-10),inhibition of reaction of anti-KLH-peptide 1 antibodies with BSA-TGF peptide,[4],inhibited in a concentration-dependent fashion
same,IC50,"[6]; induced by 1 nM of EGF, read-out: Inhibition of Mitogenesis IC50 (M) EGF",> 1e-05 M
same,IC50,"[6]; induced by 1 nM of TGFα, read-out: Inhibition of Mitogenesis IC50 (M) TGFα",> 1e-05 M
same,concentration giving partial inhibition of [125I]EGF binding,[5],> 10^-6 M

# From patent US5240912A, “Transforming growth factor (TGF) peptides” (priority 1991, dated 1993)
